From patent publication US10548854B2, “Manufacture of nonelectronic, active-infusion patch and device for transdermal delivery across skin” (The Hong Kong University of Science and Technology, priority 2012, dated 2020)

Assays:
[1] = In-vivo DFS delivery across skin by microneedle plates; parameters: species or system Sprague Dawley rats; settings: 200 μl of 5 mg/ml DFS bolus, skin sampled after 5 min
Protocol: A in-vivo test was conducted on Sprague Dawley rates between approximately 230 g-250 g to analyze DFS delivery. […] 200 μl of 5 mg/ml DFS in phosphate buffered saline (PBS) was injected through rats' naked skin with either zeolite microneedles or commercial microneedles in bolus. A negative control consisted of placing excess DFS solution on rats' naked skin. After 5 min, the skins were washed by iced DI water. About 1 mm diameter of skin samples at the injection sites were carefully cut and then weighed in 2 ml centrifuge tubes. Then the skin samples were homogenized in 5 fold PBS buffer by sonication. DFS was extracted from the homogenate by liquid-phase extraction using 500 μl ethyl-acetate for twice. The ethyl-acetate was collected into 1.5 ml centrifuge tubes and then removed under vacuum. The residues were reconstituted by 500 μl ACN:H2O (50:50 w/w ratio) and 200 μl of the reconstituted solution was send for UPLC analysis.

[2] = pig, 8 h, pH 7.4
Text: (§1) Porcine ears were freshly obtained from a local slaughter facility, gently washed with running tap water, and chopped into pieces of 50 mm in width. Visual observation was done to check if the skins were free from lesions and infections. Hairs at the back of the ear were carefully removed by clipper. Full thickness skins were obtained using manual-operated dermatome with uniform insertion force and angle. The split skins were cut into discs with 40 mm diameter. The skins were then sprayed and rubbed with 75% ethanol for 1 mm to remove fatty tissues and dirt, followed by DI water washing. Thereafter the skins were blotted with a cellulose-based fiber tissue, such as […] ™, wrapped with aluminum foil, and stored in a −20° C. refrigerator until further use. All prepared porcine skin was used within 2 weeks.
(§2) Vertical diffusion cell was filled with 7 mL phosphate buffered saline (PBS) (137 mM sodium chloride (NaCl), 2.7 mM potassium chloride (KCl), 4.3 mM sodium phosphate dibasic heptahydrate (NaH2PO4.7H2O), and 1.6 mM potassium phosphate monobasic (KH2PO4), pH 7.4) and pre-run at 300 rpm with bath circulator for 1 hr to achieve 37° C. Porcine skin was thawed by soaking in PBS at room temperature for 1 hr. After that, the porcine skin was mounted between the receptor and the donor cell of the diffusion system. The stratum corneum of the skin faced the donor cell while the dermis side faced the receptor cell. The skin was handled with care to avoid bubble accumulation on the receptor side of the skin. Diclofenac sodium (DFS) or insulin (70 μL) and DI water (500 μL) were loaded into the drug and water reservoirs, respectively, through the resealable injector ports. A patch, such as those described in previous examples, was gently shaken to ensure water could make contact with the dried hydrogel inside. The patch was applied on the donor side of the skin by finger force, with the help of adhesive tapes to keep the patch in position. Samples (1 mL) were withdrawn from the receptor cell every hour with immediate replenishment of the same volume of fresh PBS. The tests were done with patches bonded with commercial (ME-C-600), zeolite (SSM-O-150), or plastic (P-O-500) microneedles.
(§3) Quantification of DFS in samples was done by analysis under ultra-performance liquid chromatography (UPLC). With a gradient method A:B=70%:30% to 10%: 90% in 4 min (A=0.02% trifluoroacetic acid (TFA) in H2O; B=0.02% TFA in acetonitrile (ACN)), flow rate=0.45 mL/min with detection wavelength=210 nm. […] Negative control is achieved by direct pipetting of a known amount of drug on skin for diffusion.
(§4) A plastic microneedle plate was used in this experiment.

[3] = In-vitro transdermal delivery across porcine ear skin in vertical diffusion cell (active infusion microneedle patch)
Text: as §1, §2, §3, §4

blood glucose level [4] = assay: In-vivo insulin delivery, blood glucose level; parameters: species or system Sprague Dawley rats; settings: after 1 hour
Protocol: For all zeolite microneedle, commercial microneedle, and the positive control, a significant pharmaceutical effect could be observed after 1 hour, when the blood glucose level of the rats dropped by about 4-fold from the original level and was subsequently maintained for some hours.

[5] = insulin administration by the transdermal patch, compared with other groups
Protocol: An in vivo test of insulin delivery was conducted on Sprague Dawley rats weighing between approximately 230 g-250 g, which were fasting overnight, but free to access water one day before the test. The rats were anesthetized by a ketamine/xylazine cocktail, and the abdominal hairs were completely removed by a hair clipper followed by chemical depilatory creams. About 80 μl of 100 IU/ml human insulin solution was transdermal administrated to individual rats by either zeolite microneedles or the same type of commercial microneedles used in Example 12. Fixed dosed 0.1 IU insulin solution or saline was also subcutaneously injected by syringes to simulate the positive and negative control respectively. The rats' blood glucose levels were recorded by a portable glucose meter (Roche, Accu-Chek Performa Nano) for 6 hours at different time intervals. For the first 4 hours 200 μl of blood samples were also collected by squeezing the rats' tails. The blood samples were centrifuge at 13000 G for 3 min and then the blood plasma was pipetted into 1.5 ml centrifuge tubes and stored under −80° C. for blood insulin test. The blood insulin levels were tested by an ELISA kit (Mercodia, Human Insulin ELISA). […]
In pharmacokinetics, the administration efficiency of a certain drug is commonly evaluated by its Cmax and Tmax. […]

blood glucose level [6] = settings: micro-needles and pressure force (10 psi); cited from earlier work

increase of transdermal DFS delivery compared with the negative control ([1]; commercial microneedle)	increase in delivery amount compared with the commercial microneedle ([1]; zeolite microneedle)	Percentage of DFS delivered [2]	Total amount of drug delivered [2]	DFS delivery rate ([3]; zeolite microneedle plate adhered to the patch, versus negative control)	Compound	drop of blood glucose level from the original level (blood glucose level [4]; commercial microneedle, about 80 μl of 100 IU/ml human insulin)	drop of blood glucose level from the original level (blood glucose level [4]; positive control: 0.1 IU insulin subcutaneously injected by syringe)	drop of blood glucose level from the original level (blood glucose level [4]; zeolite microneedle, about 80 μl of 100 IU/ml human insulin)	Cmax (blood insulin level) [5]	Tmax (blood insulin level) [5]	lowering of normalized blood glucose level (blood glucose level [6])	insulin delivery rate profile ([3]; active infusion patch with zeolite and commercial microneedles)	insulin permeated across skin ([3]; non-porated pig skin, skin patch test (negative control), 70 μL of 4.5 mg/mL insulin)
~5 times	more than 3 fold	17.6±3.2%	60.9±6.1%	improves delivery rates	O=C(O)Cc1ccccc1Nc1c(Cl)cccc1Cl [DFS, Diclofenac sodium]	–	–	–	–	–	–	–	–
–	–	–	–	–	insulin	about 4 fold	about 4 fold	about 4 fold	highest	fastest	70%	linear insulin delivery rate	less than 5%
